# In patent publication US10314312B2, “Synergistic antimicrobial composition of zinc pyrithione” (Jubilant Life Sciences Limited, priority 2014, dated 2019):
# Legend:
# [1] = tested on: Malassezia furfur (ATCC No. 14521); assay: Anti-dandruff efficacy: zone of inhibition by disc diffusion method; assay type: cell-based; parameters: key: XX denotes No Activity
# Method: (§1) The anti-dandruff efficacy was determined by measuring zone of inhibition using disc diffusion method against Malassezia furfur (ATCC No. 14521). […] The culture plates were incubated at 37° C. for 48 hrs and antifungal activity was evaluated by observing an area of no growth around the disc. An area of no growth around the swatch is known as a zone of inhibition.
# [2] = Anti-leaching (biocide release rate) of paint formulations, ASTM-D-6903-07
# Method: The biocide (ZPTO) release rate in each test sample is calculated by the following formula: Biocide (ZPTO) release rate=(CZPTO*V*D)/(T*A) wherein, CZPTO=concentration of ZPTO in substitute ocean water (μgL^−1); V=substitute ocean water volume (L); D=hours per day; T=rotation period (hr); A=Area of paint (cm^2).
# [3] = combination: ZnP 0.25 w/w % + zinc salt 0.25 w/w %
# [4] = zinc salt alone 0.25 w/w %, no ZnP
# [5] = zinc salt alone 0.50 w/w %, no ZnP
# [6] = zinc salt alone 1.00 w/w %, no ZnP
# [7] = zinc salt alone 1.50 w/w %, no ZnP
# [8] = zinc salt alone 2.00 w/w %, no ZnP
# [9] = combination: ZnP 0.25 w/w % + zinc salt 0.50 w/w %
# [10] = combination: ZnP 0.25 w/w % + zinc salt 1.50 w/w %
# Method for M. furfur: as §1
# The SI is calculated based on F. C. […] SI=Qa/QA+Qb/QB Qa=the concentration of compound A in the blend; Qb=the concentration of compound B in the blend; QA=the concentration of compound A as the only biocide; QB=the concentration of compound B as the only biocide.
# If SI (the Synergy Index) is greater than one, antagonism between the products is indicated. If the sum is equal to one, additivity is indicated. But when SI is less than one, synergism is shown, i.e. the lower the SI the greater the synergy shown.
Compound,"Zone of Inhibition [1, 3] [mm]","Zone of Inhibition [1, 4]","Zone of Inhibition [1, 5]","Zone of Inhibition [1, 6]","Zone of Inhibition [1, 7]","Zone of Inhibition [1, 8]","Zone of Inhibition [1, 9] [mm]","Zone of Inhibition [1, 10] [mm]",Zone of Inhibition ([1]; combination: ZnP 0.50 w/w % + zinc salt 1.50 w/w %) [mm],Zone of Inhibition ([1]; combination: ZnP 1.00 w/w % + zinc salt 0.25 w/w %) [mm],Zone of Inhibition ([1]; combination: ZnP 1.00 w/w % + zinc salt 0.50 w/w %) [mm],QB = the concentration of compound B as the only biocide (minimum inhibitory concentration) (M. furfur; zinc nicotinate alone),Zone of Inhibition ([1]; ZnP alone 0.25 w/w %) [mm],Zone of Inhibition ([1]; ZnP alone 0.50 w/w %) [mm],Zone of Inhibition ([1]; ZnP alone 1.00 w/w %) [mm],Zone of Inhibition ([1]; ZnP alone 1.50 w/w %) [mm],Zone of Inhibition ([1]; ZnP alone 2.00 w/w %) [mm],QA = the concentration of compound A as the only biocide (minimum inhibitory concentration) (M. furfur; zinc pyrithione alone),"ZPTO Conc (av.) ([2]; ZPTO concentration in artificial marine water (substitute ocean water), paint formulation) [μgL−1]",Rate of Biocide Leaching (CZPTO * V*D)/(T*A) ([2]; paint formulation in substitute ocean water) [μgcm^2d^−1]
NCC(=O)[O-].NCC(=O)[O-].[Zn+2] [Zn-Gly],30,XX,XX,XX,XX,XX,–,–,–,–,–,–,–,–,–,–,–,–,–,–
CC(O)C(=O)[O-].CC(O)C(=O)[O-].[Zn+2] (centres unmarked) [Zn-Lac],38,XX,XX,XX,XX,XX,–,–,–,–,–,–,–,–,–,–,–,–,–,–
O=C([O-])c1ccccn1.O=C([O-])c1ccccn1.[Zn+2] [Zn-Pic],35,XX,XX,XX,XX,XX,38,38,–,–,–,–,–,–,–,–,–,–,–,–
"[O]=[Zn] [ZnO, zinc oxide]",30,XX,XX,XX,XX,XX,–,32,–,–,–,–,–,–,–,–,–,–,–,–
Zinc Nicotinate [Zn-Nic],40,XX,XX,XX,XX,6 mm,40,38,48,32,48,35000 (QB),–,–,–,–,–,–,–,–
Zinc pyrithione [ZPTO],–,–,–,–,–,–,–,–,–,–,–,–,30,30,30,30,30,8,2145.6,171.65
